Assay [1] has as its system INS-1E and MIN6 cells. As to the kind of experiment: GSIS and insulin, C-peptide, glucagon staining (flow cytometry, confocal). Type of assay: cell-based, rat, mouse. More on the design: key to insulin+ / glucagon+ / C-peptide+: ↑: moderate; ↑↑: most potent. As for the experimental part: Cells were cultured in a low glucose medium (5.5 mM) for 24 h. After this medium was changed to lower glucose medium (2 mM) for 2 h and then for high glucose medium (25 mM) for 30 min, media were harvested and/or cells were used for further analysis.
(§1) The presence of insulin, glucagon, C-peptide, Ki67, and DYRK1A was assessed in MIN6 and INS-1E pancreatic cell lines. Before imaging, cells were seeded onto slides at a density of 1 × 10^5 cells and maintained at 37 °C in 95% atmospheric air and 5% CO2 in a humidified atmosphere for 24 h. After washing with fresh medium, cells were incubated with 5 µM inhibitor solution for 24 h. After this time, the solution was replaced with a culture medium for another 48 h. The cells were fixed. Then after washing and permeabilization, they were incubated with specific antibodies diluted in PBS. Next, the cells were incubated for 10 min with Hoechst33342 (Sigma-Aldrich). After incubation, at 37 °C, in the dark, the cells were washed twice with HBSS (Gibco), the slide was transferred to a microscope table, and the cells were visualized under a Zeiss LSM 880 confocal microscope (Carl Zeiss, Jena, Germany) with a 63× immersion objective. Images were analyzed by Zeiss ZEN Software.
(§2) The presence of insulin, glucagon, C-peptide, Ki67 and DYRK1A was assessed in MIN6 and INS-1E pancreatic cell lines. Before analysis, cells were seeded onto slides at a density of 1 × 10^5 cells and maintained at 37 °C in 95% atmospheric air and 5% CO2 in a humidified atmosphere for 24 h. After washing with fresh medium, cells were incubated with 5 µM inhibitor solution for 24 h. After this time, the solution was replaced with a culture medium for another 48 h. The cells were then detached from the plate using trypsin. The cells were fixed. Then after washing and permeabilization, they were incubated with specific antibodies diluted in PBS. Cells were analyzed with BDAccuri flow cytometer and calculated using FlowJo software (Ashland, Oregon-based FlowJo LLC, a subsidiary of Becton Dickinson).
(In general: In flow cytometry, cells or beads pass a laser one at a time.)

The target of assay [2] is T1, DYRK1A (Homo sapiens, UniProt Q13627).
T1 construct: kinase domain of DYRK1A (126–490) was cloned into pET24a with C-terminal His-tag; His-tag (C); made in house; host or cells: E. coli BL21 (DE3) RIL
Nature of the assay: Cook activity assay (ATP regenerative NADH consuming DYRK1A activity assay). Type of assay: biochemical.

For assay [3], the system named is INS-1E and MIN6 cells. Nature of the assay: Ki67 proliferation analysis. In kind it is cell-based, rat, mouse.
The subject of assay [4] is DYRK1A in MIN6 cell line. As to the kind of experiment: DYRK1A expression by flow cytometry and confocal imaging. Type of assay: cell-based, mouse. As for the experimental part:
as §1, §2

In assay [5] the test system is INS-1E cells. As to the kind of experiment: Cell cycle analysis (propidium iodide). In kind it is cell-based, rat. The note with it: 5 µM, 24 h. As for the experimental part:
To synchronize cell cultures, we used the serum starvation protocol. INS-1E cells were seeded in a 6-well plate in a growth medium with 20% FBS overnight. Then the cultures were rinsed by PBS and change to a serum-free medium. After serum starvation for 24 h, cells were released into the cell cycle by the addition of serum and 5 µM inhibitor solution for 24 h. The cells were then detached from the plate using trypsin. Then after washing, they were incubated with 50 µg/mL propidium iodide for 15 min in the dark. Cells were analyzed with the BDAccuri flow cytometer and calculated using FlowJo software.

For assay [6], the target named is T2, DYRK1A kinase domain (Homo sapiens, UniProt Q13627).
T2 construct: kinase domain of DYRK1A (126–490) was cloned into pET24a with C-terminal His-tag; made in house; host or cells: E. coli BL21 (DE3) RIL
Nature of the assay: MST direct binding assay.

Where [7] appears, read: combination with TGF-β inhibitors.
The mark [8] stands for this setting: Table 2, Biochemistry, unit inferred.

SMILES strings stand for the structures.

For orientation: Ki means a dissociation constant, usually derived from enzyme kinetics or from competition with a known ligand. In general, Kd refers to the equilibrium constant for the complex coming apart. For `O=c1ccc2cnc3ccc(-c4cn[nH]c4)cc3c2n1-c1ccc(F)cc1C(F)(F)F` [AC27, 1-(4-fluoro-2-(trifluoromethyl)phenyl)-9-(1H-pyrazol-4-yl)benzo[h][1, 6]naphthyridin-2-one], in assay [1] (5 μM, compound alone), the glucagon level entry was “balanced (lower) glucagon level”. The insulin/C-peptide secretion entry in assay [1] (GSIS, compound alone) is recorded as “higher insulin/C-peptide secretion”; in assay [1] (setting [7]), “markedly improved”. The “C-peptide+” value in assay [1] (Table 2, Cell lines) was “↑↑”. Besides, the “glucagon+” value in assay [1] (Table 2, Cell lines) is on record as “↑”. Also, in assay [1] (Table 2, Cell lines), the “insulin+” value was “↑↑”. The “time the effect remained stable” value in assay [1] (after inhibitor action) was “up to 12 days”. In addition, the “glucagon level after GSIS” value in assay [1] (setting [7]) is recorded as “reduced”. In assay [1] (discussion statement), the “increase in insulin expression” value was “more than 60%”. Besides, the Ki is 200 ± 300 nM in assay [2] (Cook assay, DYRK1A 0.5 µM, ATP 128 µM, DYRKtide 1 mM); less than 200 nM in assay [2] (Cook assay, phosphorylation of substrate peptide); 170 ± 260 nM in assay [2] (setting [8]). Moreover, the “induction of β-cell proliferation (Ki67 labeling of insulin-labeled cells)” value in assay [3] (5 μM, vs untreated cells) is on record as “most potent in inducing β-cell proliferation”. Further, the “Ki67 labeling index in β-cells” value in assay [3] (combined with RepSox or LY364947) was “significant increase in the Ki67 labeling index”. For the same compound, in assay [3] (combined with TGF-β inhibitors), the “Ki67 labeling index, difference to that without TGF-β inhibition” value is “about 5%”. Moreover, in assay [3] (combined with TGF-β inhibitors (RepSox, LY364947), 5 μM each), the “Ki67 labeling index (proliferation rate)” value is listed as more than 12%. In addition, in assay [4] (MIN6, 24 h with inhibitor, control 74%), the “DYRK1A (fluorescence-positive cells, flow cytometry)” value worked out at 33%. Besides, in assay [4] (MIN6, vs untreated control), the “DYRK1A signal in confocal imaging” value is recorded as “reduced”. Further, in assay [5], the “number of cells in the G2/M phase” value is “increase”. For the same compound, the Kd in assay [6] (MST direct binding, 20 nM fluorescent-labelled DYRK1A kinase domain) is 1800 ± 500 nM; in assay [6] (setting [8]), 1830 ± 543 nM.

(Values after article PMC8467532, “DYRK1A Kinase Inhibitors Promote β-Cell Survival and Insulin Homeostasis” (Cells, 2021).)
